From article PMC9186362, “Design and biological evaluation of substituted 5,7-dihydro-6H-indolo[2,3-c]quinolin-6-one as novel selective Haspin inhibitors” (Journal of Enzyme Inhibition and Medicinal Chemistry, 2022)

Columns and labels:
Experiment in all cases: LanthaScreen Binding - Eu-anti-GST
NUAK2 = biological target: T1, NUAK2 (Homo sapiens, UniProt Q9H093); details: read-out: Percentage of inhibition
T1 construct: purchased Life Technologies (SelectScreen Whole Panel)
Experimental: (§1) We further evaluated the selectivity profile of compound 55 on a larger panel of kinases (SelectScreen Whole Panel, Life Technologies). The inhibition profile of 55, evaluated at 1 μM, is depicted on a dendrogram on Figure 3 where kinases inhibited by a minimum of 80% are shown. A full list of the kinases tested is shown on Table S1 in supplementary information.

MASTL = biological target: T2, MASTL (Homo sapiens, UniProt Q96GX5); details: read-out: Percentage of inhibition
T2 construct: purchased Life Technologies (SelectScreen Whole Panel)
Experimental: as §1

STK38L (NDR2) = biological target: T3, STK38L (NDR2) (Homo sapiens, UniProt Q9Y2H1); details: read-out: Percentage of inhibition
T3 construct: purchased Life Technologies (SelectScreen)
Experimental: as §1

TGFBR2 = biological target: T4, TGFBR2 (Homo sapiens, UniProt P37173); details: read-out: Percentage of inhibition
T4 construct: purchased Life Technologies (SelectScreen Whole Panel)
Experimental: as §1

MLCK (MLCK2) = MLCK (MLCK2) (Homo sapiens, UniProt Q32MK0); details: read-out: Percentage of inhibition
Experimental: as §1

EIF2AK2 (PKR) = biological target: T5, EIF2AK2 (PKR) (Homo sapiens, UniProt P19525); details: read-out: Percentage of inhibition
T5 construct: purchased Life Technologies (SelectScreen service)
T5 sequence (P19525 whole entry): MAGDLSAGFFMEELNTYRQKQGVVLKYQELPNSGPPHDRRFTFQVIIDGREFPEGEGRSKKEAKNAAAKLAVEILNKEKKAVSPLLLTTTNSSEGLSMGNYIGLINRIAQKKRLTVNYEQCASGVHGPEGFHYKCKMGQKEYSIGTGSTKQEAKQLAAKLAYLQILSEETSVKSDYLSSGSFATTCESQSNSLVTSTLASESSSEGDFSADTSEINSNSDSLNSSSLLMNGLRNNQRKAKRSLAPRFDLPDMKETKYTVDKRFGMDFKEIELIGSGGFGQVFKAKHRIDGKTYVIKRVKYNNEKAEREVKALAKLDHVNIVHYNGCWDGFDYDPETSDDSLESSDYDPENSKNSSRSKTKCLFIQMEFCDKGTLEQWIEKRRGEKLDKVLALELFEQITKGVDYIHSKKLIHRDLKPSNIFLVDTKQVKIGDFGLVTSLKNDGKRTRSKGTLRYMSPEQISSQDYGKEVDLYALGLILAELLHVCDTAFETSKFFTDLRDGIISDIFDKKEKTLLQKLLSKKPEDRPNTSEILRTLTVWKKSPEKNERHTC
Experimental: as §1

ALK T1151_L1152insT = biological target: T6, ALK T1151_L1152insT (Homo sapiens, UniProt Q9UM73, INS1151T); details: read-out: Percentage of inhibition
T6 construct: purchased Life Technologies
Experimental: as §1

PLK4 = biological target: T7, PLK4 (Homo sapiens, UniProt O00444); details: read-out: Percentage of inhibition
T7 construct: purchased Life Technologies (SelectScreen Whole Panel)
T7 sequence (O00444 whole entry): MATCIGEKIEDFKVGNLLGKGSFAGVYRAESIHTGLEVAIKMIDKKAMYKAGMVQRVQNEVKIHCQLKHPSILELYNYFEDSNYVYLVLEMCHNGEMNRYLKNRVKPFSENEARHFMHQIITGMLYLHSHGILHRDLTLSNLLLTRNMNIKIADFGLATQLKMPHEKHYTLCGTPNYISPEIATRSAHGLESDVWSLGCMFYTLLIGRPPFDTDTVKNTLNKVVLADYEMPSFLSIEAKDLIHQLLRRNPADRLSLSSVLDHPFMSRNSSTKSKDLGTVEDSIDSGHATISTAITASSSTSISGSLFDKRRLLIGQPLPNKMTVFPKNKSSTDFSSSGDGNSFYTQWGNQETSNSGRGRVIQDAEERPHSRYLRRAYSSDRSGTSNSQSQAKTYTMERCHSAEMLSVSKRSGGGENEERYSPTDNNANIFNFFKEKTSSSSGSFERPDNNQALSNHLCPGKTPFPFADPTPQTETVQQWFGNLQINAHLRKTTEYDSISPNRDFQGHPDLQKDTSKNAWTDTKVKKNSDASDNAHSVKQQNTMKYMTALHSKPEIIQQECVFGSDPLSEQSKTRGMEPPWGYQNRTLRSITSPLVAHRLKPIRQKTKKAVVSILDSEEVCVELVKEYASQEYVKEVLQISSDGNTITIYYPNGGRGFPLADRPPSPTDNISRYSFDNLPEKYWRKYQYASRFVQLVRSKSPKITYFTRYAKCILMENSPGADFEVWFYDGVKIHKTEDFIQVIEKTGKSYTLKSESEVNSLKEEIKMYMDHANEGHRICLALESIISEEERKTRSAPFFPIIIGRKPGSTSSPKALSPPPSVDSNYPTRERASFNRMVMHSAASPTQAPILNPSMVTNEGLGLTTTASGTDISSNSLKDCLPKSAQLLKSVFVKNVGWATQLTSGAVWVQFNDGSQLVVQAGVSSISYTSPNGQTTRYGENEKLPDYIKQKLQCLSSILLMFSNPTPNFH
Experimental: as §1

MYO3B (MYO3 beta) = biological target: T8, MYO3B (MYO3 beta) (Homo sapiens, UniProt Q8WXR4); details: read-out: Percentage of inhibition
T8 construct: purchased Life Technologies (SelectScreen Whole Panel)
Experimental: as §1

CDK2/cyclin O = CDK2/cyclin O (Homo sapiens, UniProt P24941); details: read-out: Percentage of inhibition
Experimental: as §1

ALK L1196M = biological target: T9, ALK L1196M (Homo sapiens, UniProt Q9UM73, L1196M); details: read-out: Percentage of inhibition
T9 construct: purchased Life Technologies (SelectScreen Whole Panel service)
Experimental: as §1

FGFR3 G697C = biological target: T10, FGFR3 G697C (Homo sapiens, UniProt P22607, G697C); details: read-out: Percentage of inhibition
T10 construct: purchased Life Technologies
Experimental: as §1

MYLK (MLCK) = MYLK (MLCK) (Homo sapiens, UniProt Q15746); details: read-out: Percentage of inhibition
Experimental: as §1

AXL R499C = biological target: T11, AXL R499C (Homo sapiens, UniProt P30530, R499C); details: read-out: Percentage of inhibition
T11 construct: purchased Life Technologies
Experimental: as §1

DDR2 T654M = biological target: T12, DDR2 T654M (Homo sapiens, UniProt Q16832, T654M); details: read-out: Percentage of inhibition
T12 construct: purchased Life Technologies (SelectScreen service)
Experimental: as §1

KIT T670E = KIT T670E (Homo sapiens, UniProt P10721, T670E); details: read-out: Percentage of inhibition
KIT T670E, sequence (P10721 26-976 T670E): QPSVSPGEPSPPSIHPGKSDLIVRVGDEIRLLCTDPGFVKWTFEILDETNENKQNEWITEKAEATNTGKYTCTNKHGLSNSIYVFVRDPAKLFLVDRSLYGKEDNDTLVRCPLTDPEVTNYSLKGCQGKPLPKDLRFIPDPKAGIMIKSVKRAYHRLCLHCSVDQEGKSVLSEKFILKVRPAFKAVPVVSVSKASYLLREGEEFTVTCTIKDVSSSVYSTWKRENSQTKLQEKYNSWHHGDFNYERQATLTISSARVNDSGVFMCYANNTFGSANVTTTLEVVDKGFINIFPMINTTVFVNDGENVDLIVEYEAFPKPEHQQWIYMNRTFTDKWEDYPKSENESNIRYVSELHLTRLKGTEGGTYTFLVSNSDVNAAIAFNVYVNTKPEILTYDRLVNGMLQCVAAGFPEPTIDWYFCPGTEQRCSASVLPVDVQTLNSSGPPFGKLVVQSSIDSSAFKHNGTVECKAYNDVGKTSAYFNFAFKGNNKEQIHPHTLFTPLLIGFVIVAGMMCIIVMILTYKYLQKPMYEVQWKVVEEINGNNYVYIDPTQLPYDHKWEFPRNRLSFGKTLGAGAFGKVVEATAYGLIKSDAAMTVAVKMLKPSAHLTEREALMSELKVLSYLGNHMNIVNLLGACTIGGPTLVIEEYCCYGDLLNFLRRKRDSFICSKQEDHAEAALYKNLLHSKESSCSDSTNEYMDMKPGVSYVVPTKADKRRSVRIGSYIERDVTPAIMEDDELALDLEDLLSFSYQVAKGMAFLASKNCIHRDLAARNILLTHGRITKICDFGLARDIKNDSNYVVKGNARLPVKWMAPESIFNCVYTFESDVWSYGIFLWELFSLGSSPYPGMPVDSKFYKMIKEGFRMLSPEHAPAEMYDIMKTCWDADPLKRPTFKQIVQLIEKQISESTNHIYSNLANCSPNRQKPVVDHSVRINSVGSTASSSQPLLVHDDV
Experimental: as §1

MYO3A (MYO3 alpha) = biological target: T13, MYO3A (MYO3 alpha) (Homo sapiens, UniProt Q8NEV4); details: read-out: Percentage of inhibition
T13 construct: purchased Life Technologies
Experimental: as §1

MAP3K5 (ASK1) = biological target: T14, MAP3K5 (ASK1) (Homo sapiens, UniProt Q99683); details: read-out: Percentage of inhibition
T14 construct: purchased Life Technologies
Experimental: as §1

LIMK2 = biological target: T15, LIMK2 (Homo sapiens, UniProt P53671); details: read-out: Percentage of inhibition
T15 construct: purchased Life Technologies (SelectScreen Whole Panel service)
Experimental: as §1

ACVR1 (ALK2) R206H = ACVR1 (ALK2) R206H (Homo sapiens, UniProt Q04771, R206H); details: read-out: Percentage of inhibition
Experimental: as §1

CDK3/cyclin E1 = biological target: T16, CDK3/cyclin E1 (Homo sapiens, UniProt Q00526); details: read-out: Percentage of inhibition
T16 construct: purchased Life Technologies (SelectScreen Whole Panel)
Experimental: as §1

KIT V559D T670I = biological target: T17, KIT V559D T670I (Homo sapiens, UniProt P10721, T670I/V559D); details: read-out: Percentage of inhibition
T17 construct: purchased Life Technologies
T17 sequence (P10721 26-976 V559D/T670I): as the sequence (P10721 26-976 T670E) above, with V534D, E645I counted along it
Experimental: as §1

ALK R1275Q = biological target: T18, ALK R1275Q (Homo sapiens, UniProt Q9UM73, R1275Q); details: read-out: Percentage of inhibition
T18 construct: purchased Life Technologies (SelectScreen service)
Experimental: as §1

MET D1228H = MET D1228H (Homo sapiens, UniProt P08581, D1228H); details: read-out: Percentage of inhibition
Experimental: as §1

PRKACB (PRKAC beta) = biological target: T19, PRKACB (PRKAC beta) (Homo sapiens, UniProt P22694); details: read-out: Percentage of inhibition
T19 construct: purchased Life Technologies
Experimental: as §1

NEK8 = biological target: T20, NEK8 (Homo sapiens, UniProt Q86SG6); details: read-out: Percentage of inhibition
T20 construct: purchased Life Technologies (SelectScreen Whole Panel service)
T20 sequence (Q86SG6 whole entry): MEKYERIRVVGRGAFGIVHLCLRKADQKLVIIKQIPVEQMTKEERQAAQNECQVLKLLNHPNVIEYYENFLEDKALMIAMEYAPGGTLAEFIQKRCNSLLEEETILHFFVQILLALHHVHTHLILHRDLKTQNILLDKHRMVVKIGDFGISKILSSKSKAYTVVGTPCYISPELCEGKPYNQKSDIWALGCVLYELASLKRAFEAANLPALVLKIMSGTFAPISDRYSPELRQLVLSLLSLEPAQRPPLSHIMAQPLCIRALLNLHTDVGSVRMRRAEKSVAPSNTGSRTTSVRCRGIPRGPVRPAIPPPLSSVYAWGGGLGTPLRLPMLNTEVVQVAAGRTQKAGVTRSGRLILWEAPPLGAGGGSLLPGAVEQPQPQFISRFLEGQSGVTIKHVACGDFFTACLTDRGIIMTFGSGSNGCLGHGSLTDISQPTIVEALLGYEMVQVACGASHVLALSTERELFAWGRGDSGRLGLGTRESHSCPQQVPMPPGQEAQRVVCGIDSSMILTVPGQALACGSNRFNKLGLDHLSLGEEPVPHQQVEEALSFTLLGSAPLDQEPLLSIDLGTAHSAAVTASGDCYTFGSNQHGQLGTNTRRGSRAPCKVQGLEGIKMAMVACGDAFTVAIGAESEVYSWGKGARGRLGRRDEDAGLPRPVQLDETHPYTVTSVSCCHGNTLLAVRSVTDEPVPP
Experimental: as §1

RET G691S = biological target: T21, RET G691S (Homo sapiens, UniProt P07949, G691S); details: read-out: Percentage of inhibition
T21 construct: purchased Life Technologies (SelectScreen service)
Experimental: as §1

MAP4K1 (HPK1) = biological target: T22, MAP4K1 (HPK1) (Homo sapiens, UniProt Q92918); details: read-out: Percentage of inhibition
T22 construct: purchased Life Technologies (SelectScreen service)
Experimental: as §1

STK32B (YANK2) = STK32B (YANK2) (Homo sapiens, UniProt Q9NY57); details: read-out: Percentage of inhibition
Experimental: as §1

MAP3K11 (MLK3) = biological target: T23, MAP3K11 (MLK3) (Homo sapiens, UniProt Q16584); details: read-out: Percentage of inhibition
T23 construct: purchased Life Technologies
Experimental: as §1

LATS2 = biological target: T24, LATS2 (Homo sapiens, UniProt Q9NRM7); details: read-out: Percentage of inhibition
T24 construct: purchased Life Technologies (SelectScreen service)
T24 sequence (Q9NRM7 whole entry): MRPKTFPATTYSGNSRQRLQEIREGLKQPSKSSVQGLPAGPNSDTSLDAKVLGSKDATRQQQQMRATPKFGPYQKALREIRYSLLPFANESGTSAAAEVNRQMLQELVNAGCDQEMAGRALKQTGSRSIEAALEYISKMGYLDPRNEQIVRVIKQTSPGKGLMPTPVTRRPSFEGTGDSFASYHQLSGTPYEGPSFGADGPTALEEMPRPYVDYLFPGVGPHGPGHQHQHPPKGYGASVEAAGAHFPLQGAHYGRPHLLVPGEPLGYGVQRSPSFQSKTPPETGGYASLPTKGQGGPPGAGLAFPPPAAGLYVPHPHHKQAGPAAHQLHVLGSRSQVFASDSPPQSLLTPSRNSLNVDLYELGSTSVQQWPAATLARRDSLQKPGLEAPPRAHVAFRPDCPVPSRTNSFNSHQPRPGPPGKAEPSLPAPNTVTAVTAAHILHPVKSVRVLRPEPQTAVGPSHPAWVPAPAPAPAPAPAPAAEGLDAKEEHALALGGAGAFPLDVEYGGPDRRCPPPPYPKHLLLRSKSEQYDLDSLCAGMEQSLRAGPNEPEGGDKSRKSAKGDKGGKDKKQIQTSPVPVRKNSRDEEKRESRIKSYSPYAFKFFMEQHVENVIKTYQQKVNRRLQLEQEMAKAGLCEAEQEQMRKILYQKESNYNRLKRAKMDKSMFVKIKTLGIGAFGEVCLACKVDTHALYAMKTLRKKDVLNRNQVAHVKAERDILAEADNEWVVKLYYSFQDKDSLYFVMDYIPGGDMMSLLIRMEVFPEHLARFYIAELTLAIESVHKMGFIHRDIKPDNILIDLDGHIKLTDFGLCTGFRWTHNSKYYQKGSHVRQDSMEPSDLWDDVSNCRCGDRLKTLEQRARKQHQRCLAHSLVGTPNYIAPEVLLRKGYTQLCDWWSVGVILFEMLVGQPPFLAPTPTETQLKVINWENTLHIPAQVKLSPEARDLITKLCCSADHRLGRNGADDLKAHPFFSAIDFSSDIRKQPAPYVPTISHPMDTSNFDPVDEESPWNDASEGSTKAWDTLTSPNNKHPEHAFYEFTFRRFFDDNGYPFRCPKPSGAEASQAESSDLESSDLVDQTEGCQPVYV
Experimental: as §1

DMPK = DMPK (Homo sapiens, UniProt Q09013); details: read-out: Percentage of inhibition
Experimental: as §1

SIK1 = biological target: T25, SIK1 (Homo sapiens, UniProt P57059); details: read-out: Percentage of inhibition
T25 construct: purchased Life Technologies (SelectScreen Whole Panel service)
Experimental: as §1

VRK2 = biological target: T26, VRK2 (Homo sapiens, UniProt Q86Y07); details: read-out: Percentage of inhibition
T26 construct: purchased Life Technologies (SelectScreen Whole Panel)
T26 sequence (Q86Y07 whole entry): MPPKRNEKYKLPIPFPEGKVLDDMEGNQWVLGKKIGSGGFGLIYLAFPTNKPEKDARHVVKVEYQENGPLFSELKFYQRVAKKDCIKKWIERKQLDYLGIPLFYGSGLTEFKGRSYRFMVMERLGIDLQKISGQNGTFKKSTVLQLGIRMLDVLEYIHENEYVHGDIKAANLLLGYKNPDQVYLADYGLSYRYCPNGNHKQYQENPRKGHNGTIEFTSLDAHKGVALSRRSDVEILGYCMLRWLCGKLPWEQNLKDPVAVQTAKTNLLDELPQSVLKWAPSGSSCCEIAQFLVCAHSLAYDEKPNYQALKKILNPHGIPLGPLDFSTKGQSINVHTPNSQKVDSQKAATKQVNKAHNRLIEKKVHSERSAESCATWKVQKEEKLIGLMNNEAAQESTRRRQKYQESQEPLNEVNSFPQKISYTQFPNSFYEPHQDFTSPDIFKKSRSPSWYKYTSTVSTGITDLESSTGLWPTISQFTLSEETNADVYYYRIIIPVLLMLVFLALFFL
Experimental: as §1

TAOK3 (JIK) = biological target: T27, TAOK3 (JIK) (Homo sapiens, UniProt Q9H2K8); details: read-out: Percentage of inhibition
T27 construct: purchased Life Technologies (SelectScreen service)
Experimental: as §1

ICK = ICK (Homo sapiens, UniProt Q9UPZ9); details: read-out: Percentage of inhibition
Experimental: as §1

FLT3 ITD = details: 1 µM
Experimental: as §1

RIPK3 = biological target: T28, RIPK3 (Homo sapiens, UniProt Q9Y572); details: read-out: Percentage of inhibition
T28 construct: purchased Life Technologies (SelectScreen Whole Panel)
Experimental: as §1

TAOK1 = biological target: T29, TAOK1 (Homo sapiens, UniProt Q7L7X3); details: read-out: Percentage of inhibition
T29 construct: purchased Life Technologies
Experimental: as §1

COc1ccc2[nH]c3c(=O)[nH]c4ccc(O)cc4c3c2c1 [Compound 55, 2-Hydroxy-10-methoxy-5,7-dihydro-6H-indolo[2,3-c]quinolin-6-one] showed an inhibition at 1 µM (NUAK2) of 53%, an inhibition at 1 µM (MASTL) of 50% and an inhibition at 1 µM (STK38L (NDR2)) of 8%. The inhibition at 1 µM (TGFBR2) was 102%, the inhibition at 1 µM (MLCK (MLCK2)) was 62% and the inhibition at 1 µM (EIF2AK2 (PKR)) was 74%. The inhibition at 1 µM (ALK T1151_L1152insT) was 32%, the inhibition at 1 µM (PLK4) was 50% and the inhibition at 1 µM (MYO3B (MYO3 beta)) was 53%. For the same molecule, the inhibition at 1 µM (CDK2/cyclin O) was 61%, the inhibition at 1 µM (ALK L1196M) was 15% and the inhibition at 1 µM (FGFR3 G697C) was 35%. The inhibition at 1 µM (MYLK (MLCK)) was 60%, the inhibition at 1 µM (AXL R499C) was 35% and the inhibition at 1 µM (DDR2 T654M) was 73%. The inhibition at 1 µM (KIT T670E) was 63%, the inhibition at 1 µM (MYO3A (MYO3 alpha)) was 33% and the inhibition at 1 µM (MAP3K5 (ASK1)) was 28%. It also gave an inhibition at 1 µM (LIMK2) of 11%, an inhibition at 1 µM (ACVR1 (ALK2) R206H) of 14% and an inhibition at 1 µM (CDK3/cyclin E1) of 50%. For the same molecule, the inhibition at 1 µM (KIT V559D T670I) was 32%, the inhibition at 1 µM (ALK R1275Q) was 23% and the inhibition at 1 µM (MET D1228H) was 14%. It also gave an inhibition at 1 µM (PRKACB (PRKAC beta)) of 35%, an inhibition at 1 µM (NEK8) of 16% and an inhibition at 1 µM (RET G691S) of 91%. The inhibition at 1 µM (MAP4K1 (HPK1)) was 81%, the inhibition at 1 µM (STK32B (YANK2)) was 7% and the inhibition at 1 µM (MAP3K11 (MLK3)) was 36%. The inhibition at 1 µM (LATS2) was 82%, the inhibition at 1 µM (DMPK) was 63% and the inhibition at 1 µM (SIK1) was 19%. It also gave an inhibition at 1 µM (VRK2) of 54%, an inhibition at 1 µM (TAOK3 (JIK)) of 24% and an inhibition at 1 µM (ICK) of 57%. It also gave a Percentage of inhibition (FLT3 ITD) of 97%, an inhibition at 1 µM (RIPK3) of -6% and an inhibition at 1 µM (TAOK1) of 35%.
